A short description of the series: gradient 5% acetonitrile 3 min, to 50% in 2 min, to 85% in 15 min, held 3 min, 100 µL/min. The note with it: column: Zorbax Extend-C18 2.1 x 50 mm; eluents: water / acetonitrile, 0.1% formic acid. Summed up:
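The mobile phases were water and acetonitrile, each with 0.1% formic acid, pumped at 100 μL/min through a Zorbax Extend-C18 column (2.1 × 50 mm, 1.8 μm). Pure standards were injected as mixtures of ~100 molecules and detected by a quadrupole time-of-flight mass spectrometer in positive and negative ionization mode. Retention time came from computationally picked adduct peaks, each inspected by hand.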
In the case of `CCCCn1cc(S(=O)(=O)Nc2ccccc2)c2cccnc21`, the RP-LC retention time worked out at 937 s.

`O=C(Cc1c[nH]c2ccccc12)NC1CCN(c2ccc(=O)[nH]n2)C1` (stereo not drawn) had an RP-LC retention time of 600 s.

In turn, `COc1ccc(Cn2c(=O)c3sccc3n(Cc3nc(-c4ccc(C)cc4)no3)c2=O)cc1` gave an RP-LC retention time of 1060 s.

With `CC(C)NC(=O)C1CCCN(c2nc3ncn(CC(=O)Nc4cccc(C(C)C)c4)c(=O)c3s2)C1` (stereo not drawn), the RP-LC retention time turned out to be 791 s.

The molecule `Cc1ccc(-c2ncccc2CNS(=O)(=O)c2ccc(Cl)s2)cc1` gave an RP-LC retention time of 780 s.

Turning to `CCOc1ccccc1CNC(=O)c1cnc(OC)nc1`, the RP-LC retention time was 702 s.

`CCn1cc(CCNC(=O)Nc2cccc(Cl)c2F)c2cccnc21`: the RP-LC retention time stood at 802 s.

As for `CCn1c(=O)n(CC(=O)NCCC2=CCCCC2)c(=O)c2cnc(-c3ccccc3)nc21`, the RP-LC retention time amounted to 1130 s.

Molecule `Cc1ccc2nc(-c3ccc(C)c(NC(=O)C(C)(C)C)c3)[nH]c2c1` displayed an RP-LC retention time of 680 s.

On to `Cn1cc(C(=O)NCCc2ccccc2)c(S(=O)(=O)N2CCSCC2)n1`, for which the RP-LC retention time was determined as 1030 s.

With `CN1C(=O)c2cc(C(=O)NCc3ccccc3Br)nn2CC1(C)C(=O)NC1CCCC1` (stereo not drawn), the RP-LC retention time was determined as 828 s.

In turn, `COc1cc(NC(=O)C2CCCN(S(=O)(=O)c3cc(-c4noc(C)n4)cs3)C2)cc(OC)c1` (stereo not drawn) had an RP-LC retention time of 949 s.

In turn, `O=C(Nc1ccc(F)cc1F)c1ccc(Br)cc1F` returned an RP-LC retention time of 969 s.

Consider `Fc1cccc(Cn2cc(-c3noc(-c4ccccc4)n3)nn2)c1`, for which the RP-LC retention time stood at 986 s.

For `Cc1ccc(Cl)cc1N1C(=O)CN(S(C)(=O)=O)CC1(C)C(=O)NC1CCCC1` (stereo not drawn), the RP-LC retention time came out at 838 s.

As to `Cc1nc2cc(N3CC(C(=O)Nc4cccc(Br)c4)CC3=O)ccc2o1` (stereo not drawn), the RP-LC retention time came out at 805 s.

For the molecule `Cc1ccc(NC(=O)C2(C)Oc3cccnc3N(C)C2=O)c(C)c1` (stereo not drawn), the RP-LC retention time turned out to be 816 s.

Turning to `CCCNC(=O)c1cn(-c2cc(-c3nc(C(C)C)no3)ccn2)cn1`, the RP-LC retention time is 860 s.

Turning to `CCC(=O)N1CCc2c([nH]c3ccc(Cl)cc23)C12C(=O)N(C)c1ccccc12` (stereo not drawn), the RP-LC retention time worked out at 901 s.

The molecule `O=C(NCc1ccc2c(c1)OCO2)C1CCN(c2cnc3nccnc3c2)CC1` gave an RP-LC retention time of 659 s.

In turn, `CC(C)n1cc(S(=O)(=O)Nc2ccc(F)cc2F)c2cccnc21` yielded an RP-LC retention time of 890 s.

Molecule `NS(=O)(=O)c1ccc(CNC(=O)c2coc(NC(=O)c3cnccn3)n2)cc1` displayed an RP-LC retention time of 560 s.

Turning to `O=C(O)c1cccc(Nc2c(-c3ccc([N+](=O)[O-])cc3)nc3cnccn23)c1`, the RP-LC retention time was found to be 717 s.

On to `O=C(Nc1cccc(-c2cn3cccnc3n2)c1)c1ccc(F)c(F)c1`, for which the RP-LC retention time came out at 706 s.

In turn, `Cc1ccc(C)c(-c2cc3c(=O)n(Cc4nc(-c5ccccc5Cl)no4)ncn3n2)c1` returned an RP-LC retention time of 1220 s.

As to `CCn1c(=O)sc2cc(S(=O)(=O)N3CCC(C(=O)Nc4ccc(F)cc4C)CC3)ccc21`, the RP-LC retention time is 911 s.

On to `Cc1cccc(NC(=O)N2CCN(c3cc(C)nc(N4CCOCC4)n3)CC2)c1`, for which the RP-LC retention time was determined as 623 s.

In the case of `N#Cc1ccc(C(=O)Nc2cnn(-c3ncc(N4CCCCC4)cn3)c2)cc1`, the RP-LC retention time was determined as 848 s.

For `CCn1c(CC2CCN(C(=O)NCC(=O)OC)C2)nc2cccnc21` (stereo not drawn), the RP-LC retention time stood at 534 s.

In turn, `O=C(NCc1ccccn1)C1c2ccccc2C(=O)N(Cc2ccccc2)C12CCCC2` (stereo not drawn) yielded an RP-LC retention time of 704 s.

On to `O=C(NCc1ccc2c(c1)OCO2)C1CCN(C(=O)C2Sc3ccccc3NC2=O)CC1` (stereo not drawn), for which the RP-LC retention time was found to be 703 s.

Regarding `Cn1c(=O)c2c(nc(Cc3ccccc3)n2C)n(C)c1=O`, the RP-LC retention time turned out to be 764 s.

The molecule `CCCCOc1ccc(CNC(=O)C2CCN(Cc3cn(C)c4ccc(OC)cc34)CC2)cc1` registered an RP-LC retention time of 804 s.

For `Fc1ccccc1-c1ccc(CNCc2ccc3c(c2)OCO3)o1`, the RP-LC retention time came out at 695 s.

Consider `O=C(NC1CCCC1)c1nnn(-c2ccc(F)cc2)c1-c1ccncc1`, for which the RP-LC retention time stood at 788 s.

Molecule `CC(C)(C)NC(=O)c1cc2c(n(-c3ccc(C(F)(F)F)cc3)c1=O)CCCC2=O` gave an RP-LC retention time of 949 s.

Molecule `CSc1ccc(-c2noc(Cn3nc(-c4ccccc4)ccc3=O)n2)cc1` registered an RP-LC retention time of 1040 s.

Molecule `CC1CCC(NC(=O)CCn2nc(C(=O)N3c4ccccc4CC3C)ccc2=O)CC1` (stereo not drawn) registered an RP-LC retention time of 851 s.

Turning to `CCn1ccc(C(=O)Nc2ccc(N3CCN(c4ccccc4)C3=O)nc2)n1`, the RP-LC retention time came to 786 s.

For the molecule `CCc1cc(=O)n(CC(=O)Nc2ccc(F)c(F)c2)c(N2CCOCC2)n1`, the RP-LC retention time came to 756 s.

With `Cc1ccc(NS(=O)(=O)c2cn(C(C)C)c3ncccc23)cc1F`, the RP-LC retention time came to 861 s.

`CCn1c(=O)oc2cc(-c3noc(-c4n[nH]c5c4CCCC5)n3)ccc21` yielded an RP-LC retention time of 914 s.

Regarding `CCn1ncc(NC(=O)COc2ccc(F)cc2)c(N2CCCCC2)c1=O`, the RP-LC retention time was determined as 793 s.

The molecule `Clc1ccccc1-c1noc(Cc2nnc(-c3ccccc3)o2)n1` showed an RP-LC retention time of 978 s.

For `CCOc1ccc(-c2nc(Cc3noc(-c4ccccn4)n3)c(C)o2)cc1`, the RP-LC retention time was determined as 966 s.

Take `Cc1cc(=O)n(CC(=O)Nc2ccc(F)c(Cl)c2)c(N2CCOCC2)n1`: the RP-LC retention time was determined as 677 s.

Molecule `CC1CCN(S(=O)(=O)c2ccc(-c3nnc(C(=O)NCCCOC(C)C)o3)cc2)CC1` yielded an RP-LC retention time of 1030 s.

With `Cc1ccn2c(NC(=O)c3ccc([N+](=O)[O-])cc3)c(-c3ccccc3)nc2c1`, the RP-LC retention time came out at 667 s.

`CCC1Oc2ccc(S(=O)(=O)N3CCC(C(=O)Nc4cc(C)ccc4OC)CC3)cc2NC1=O` (stereo not drawn) gave an RP-LC retention time of 936 s.

Regarding `CCN(CC)S(=O)(=O)c1ccc2c(c1)CC(C(=O)NC1CCCC1)N2C(C)=O` (stereo not drawn), the RP-LC retention time came out at 855 s.

Molecule `CCn1nnc2ccc(-c3noc(CNC(=O)c4ccccc4)n3)cc21` gave an RP-LC retention time of 773 s.

Consider `Cc1cc(C)cc(N2C=C(C(=O)N3CCOCC3)S(=O)(=O)c3ccc(F)cc32)c1`, for which the RP-LC retention time amounted to 788 s.

For `Cc1ccc(-c2noc(CCN3CCN(c4ccccn4)CC3)n2)cc1`, the RP-LC retention time is 625 s.

`Cc1cc(C(=O)Nc2ccccc2I)n(-c2ccccc2)n1`: the RP-LC retention time was 974 s.

`Cc1ccc(-n2ncc3c(=O)n(Cc4nc(-c5ccc(F)c(Cl)c5)no4)cnc32)cc1` gave an RP-LC retention time of 1190 s.

As for `CC(=O)N1c2ccc(S(=O)(=O)N(C)CC(=O)N3CCN(c4ccccn4)CC3)cc2CC1C` (stereo not drawn), the RP-LC retention time turned out to be 590 s.

On to `COc1ccc(NC(=O)N2[C@H]3CC[C@@H]2c2cnc(-c4ccccc4)nc2C3)cc1OC`, for which the RP-LC retention time was found to be 838 s.

As to `CCN(Cc1ccccc1)c1ccc(-c2noc(CN3CCCC(C)C3)n2)cn1` (stereo not drawn), the RP-LC retention time came to 792 s.
